Assay results as given in ChEMBL document CHEMBL5678804 (Cancer Cell, 2011).
Each block holds one molecule with its values, some of them ahead of it. Calls of active or inactive are those of the source. No cut-off for these calls is given here.

Legend:
[1] = molecular target: Tyrosine-protein kinase ABL1 (Homo sapiens, UniProt P00519); assay: Inhibition of human N-terminal his tagged native ABL1 (229 to 499 residues) expressed in Sf9 cells using ABLtide as substrate preincubated for 2 hrs followed by ATP addition and measured every 2 mins for […] by spectrophotometric analysis
[2] = molecular target: Tyrosine-protein kinase ABL1 (Homo sapiens, UniProt P00519, T315I); assay: Inhibition of human ABL1 T315I mutant (229 to 499 residues) using ABLtide as substrate preincubated for 2 hrs followed by ATP addition and measured every 2 mins for […] by spectrophotometric analysis
[3] = test system: BaF3; assay: cells; conditions: Mus musculus, BaF3, 72 h
[4] = test system: BaF3; assay: cells; conditions: Mus musculus, BaF3, 72 h; remark: listed apart in the source
[5] = test system: BaF3; assay: cells; conditions: Mus musculus, BaF3, 72 h; remark: listed apart in the source
[6] = test system: BaF3; assay: cells; conditions: Mus musculus, BaF3, 72 h; remark: listed apart in the source
[7] = test system: BaF3; assay: cells; conditions: Mus musculus, BaF3, 72 h; remark: listed apart in the source
[8] = test system: BaF3; assay: cells; conditions: Mus musculus, BaF3, 72 h; remark: listed apart in the source
[9] = test system: BaF3; assay: cells; conditions: Mus musculus, BaF3, 72 h; remark: listed apart in the source
[10] = test system: BaF3; assay: cells; conditions: Mus musculus, BaF3, 72 h; remark: listed apart in the source
[11] = test system: BaF3; assay: cells; conditions: Mus musculus, BaF3, 72 h; remark: listed apart in the source
[12] = test system: BaF3; assay: cells; conditions: Mus musculus, BaF3, 72 h; remark: listed apart in the source
[13] = test system: BaF3; assay: cells; conditions: Mus musculus, BaF3, 72 h; remark: listed apart in the source
[14] = test system: BaF3; assay: cells; conditions: Mus musculus, BaF3, 72 h; remark: listed apart in the source
[15] = test system: BaF3; assay: cells; conditions: Mus musculus, BaF3, 72 h; remark: listed apart in the source
[16] = test system: BaF3; assay: cells; conditions: Mus musculus, BaF3, 72 h; remark: listed apart in the source
[17] = molecular target: Crk-like protein (Mus musculus, UniProt P47941, T315I); assay: Inhibition of CrkL in mouse BaF3 cells harbouring BCR-ABL1 T315I mutant measured after 6 hrs by immunoblotting analysis; format: cell-based
Sequence of Crk-like protein (P47941 whole entry, looked up, stated change not applied): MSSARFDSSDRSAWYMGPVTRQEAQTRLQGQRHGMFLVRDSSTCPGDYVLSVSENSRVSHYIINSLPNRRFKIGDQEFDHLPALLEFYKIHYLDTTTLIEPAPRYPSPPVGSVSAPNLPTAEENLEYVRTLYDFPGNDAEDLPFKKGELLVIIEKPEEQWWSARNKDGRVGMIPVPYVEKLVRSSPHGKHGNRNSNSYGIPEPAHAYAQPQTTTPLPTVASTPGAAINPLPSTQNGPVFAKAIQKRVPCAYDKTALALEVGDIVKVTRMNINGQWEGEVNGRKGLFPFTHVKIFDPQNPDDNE

[18] = test system: BaF3; assay: cells; conditions: Mus musculus, BaF3, 72 h; remark: listed apart in the source
[19] = test system: BaF3; assay: cells; conditions: Mus musculus, BaF3, 72 h; remark: listed apart in the source
[20] = test system: BaF3; assay: Antitumor activity against mouse BaF3 cells harbouring BCR-ABL1 T315I mutant xenografted in Balb/c mouse model assessed as prolongation of animal survival at 100 mg/kg, po administered twice daily for 21 days; format: functional, organism-based; conditions: time 21.0 day

SMILES: CC(C)(C)c1cc(NC(=O)Nc2cccc(Cl)c2Cl)n(-c2ccc3c(c2)C[C@@H](C(=O)O)NC3)n1
- IC50 [1]: 57 nM
- IC50 [2]: 773 nM

SMILES: Cc1cn(-c2cc(NC(=O)c3ccc(C)c(Nc4nccc(-c5cccnc5)n4)c3)cc(C(F)(F)F)c2)cn1 [NILOTINIB]
- IC50 [4]: 95 nM
- IC50 [15]: 9500 nM
- IC50 [17]: > 5000 nM

SMILES: CNC(=O)c1cc(Oc2ccc(NC(=O)Nc3cc(C(C)(C)C)nn3C)c(F)c2)ccn1
- IC50 [1]: 88 nM
- IC50 [2]: 80 nM

SMILES: Cc1ccc(NC(=O)c2ccc(CN3CCN(C)CC3)cc2)cc1Nc1nccc(-c2cccnc2)n1 [IMATINIB]
- Activity [20]: inactive

Second part, the molecule after the results:

- IC50 [1]: 9 nM
- IC50 [2]: 17 nM
SMILES: CNC(=O)c1cc(Oc2ccc(NC(=O)Nc3cc(C(C)(C)C)nn3-c3ccc4c(c3)CCNC4)c(F)c2)ccn1

- IC50 [2]: 711 nM
SMILES: CC(C)(C)c1cc(NC(=O)Nc2cccc(Cl)c2Cl)n(-c2ccc3ncccc3c2)n1

- IC50 [3]: 8 nM
- IC50 [4]: 2 nM
- IC50 [5]: 1.2 nM
- IC50 [6]: 2 nM
- IC50 [7]: 0.3 nM
- IC50 [8]: 2.8 nM
- IC50 [9]: 2.7 nM
- IC50 [10]: 7.3 nM
- IC50 [11]: 1.1 nM
- IC50 [12]: 1 nM
- IC50 [13]: 65 nM
- IC50 [14]: 0.4 nM
- IC50 [15]: 3800 nM
- IC50 [16]: 8 nM
- IC50 [17]: > 5000 nM
- IC50 [18]: 2.3 nM
SMILES: Cc1nc(Nc2ncc(C(=O)Nc3c(C)cccc3Cl)s2)cc(N2CCN(CCO)CC2)n1 [DASATINIB ANHYDROUS]

- IC50 [3]: 200 nM
- IC50 [19]: 74 nM
- IC50 [4]: 190 nM
- IC50 [5]: 160 nM
- IC50 [6]: 80 nM
- IC50 [7]: 130 nM
- IC50 [8]: 180 nM
- IC50 [9]: 130 nM
- IC50 [10]: 110 nM
- IC50 [11]: 65 nM
- IC50 [12]: 190 nM
- IC50 [13]: 88 nM
- IC50 [14]: 104 nM
- IC50 [16]: 84 nM
- IC50 [18]: 84 nM
SMILES: Cc1cc(Nc2cc(N3CCN(C)CC3)nc(Sc3ccc(NC(=O)C4CC4)cc3)n2)n[nH]1 [TOZASERTIB]
